As usually defined, the pKd is −log10 of the Kd, conventionally taken in molar units. High values mean a small Kd, low ones a large Kd.

pKd: −log10 of the molar value.

The target in assay [1] is Cytochrome-P450 (CYP) 2D6 (Homo sapiens, UniProt P10635). Briefly: biochemical.
Assay [2] has as its target Cytochrome-P450 (CYP) 2C9 (Homo sapiens, UniProt P11712). Kind of assay: SPR array binding of compound targets to immobilized CYP450 enzyme probes.
The target of assay [3] is Cytochrome-P450 (CYP) 2C19 (Homo sapiens, UniProt P33261). Briefly: biochemical.
Assay [4] has as its target T1, Cytochrome-P450 (CYP) 1A2 (Homo sapiens, UniProt P05177).
T1 sequence (P05177 1-516): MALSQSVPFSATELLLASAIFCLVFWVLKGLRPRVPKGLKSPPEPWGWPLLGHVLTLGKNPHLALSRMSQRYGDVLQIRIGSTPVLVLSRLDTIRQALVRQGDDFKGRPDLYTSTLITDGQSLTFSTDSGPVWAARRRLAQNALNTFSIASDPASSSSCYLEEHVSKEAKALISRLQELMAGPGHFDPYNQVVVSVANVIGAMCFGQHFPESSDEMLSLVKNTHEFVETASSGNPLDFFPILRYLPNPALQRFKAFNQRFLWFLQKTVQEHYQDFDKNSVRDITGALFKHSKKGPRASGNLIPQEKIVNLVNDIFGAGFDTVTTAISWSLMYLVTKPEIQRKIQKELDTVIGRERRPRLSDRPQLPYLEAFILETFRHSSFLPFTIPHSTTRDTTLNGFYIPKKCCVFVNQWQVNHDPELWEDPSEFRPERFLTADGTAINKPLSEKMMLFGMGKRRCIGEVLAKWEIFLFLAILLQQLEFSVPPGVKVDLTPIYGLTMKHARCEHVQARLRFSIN
Kind of assay: biochemical.

Cytochrome-P450 (CYP) 2C19, sequence (P33261 whole entry): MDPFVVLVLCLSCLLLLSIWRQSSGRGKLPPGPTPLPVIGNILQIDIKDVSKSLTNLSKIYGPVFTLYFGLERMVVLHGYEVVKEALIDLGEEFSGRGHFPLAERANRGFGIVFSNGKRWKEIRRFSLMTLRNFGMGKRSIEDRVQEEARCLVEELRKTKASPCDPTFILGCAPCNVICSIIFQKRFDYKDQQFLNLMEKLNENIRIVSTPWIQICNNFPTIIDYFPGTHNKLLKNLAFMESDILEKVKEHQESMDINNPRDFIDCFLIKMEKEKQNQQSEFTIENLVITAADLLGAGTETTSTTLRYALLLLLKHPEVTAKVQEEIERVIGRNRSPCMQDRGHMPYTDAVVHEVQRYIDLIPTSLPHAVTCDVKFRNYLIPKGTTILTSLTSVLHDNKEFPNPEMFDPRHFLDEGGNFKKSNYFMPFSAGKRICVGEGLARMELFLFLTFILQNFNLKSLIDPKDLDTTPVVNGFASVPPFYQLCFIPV
Cytochrome-P450 (CYP) 2C9, sequence (P11712 whole entry): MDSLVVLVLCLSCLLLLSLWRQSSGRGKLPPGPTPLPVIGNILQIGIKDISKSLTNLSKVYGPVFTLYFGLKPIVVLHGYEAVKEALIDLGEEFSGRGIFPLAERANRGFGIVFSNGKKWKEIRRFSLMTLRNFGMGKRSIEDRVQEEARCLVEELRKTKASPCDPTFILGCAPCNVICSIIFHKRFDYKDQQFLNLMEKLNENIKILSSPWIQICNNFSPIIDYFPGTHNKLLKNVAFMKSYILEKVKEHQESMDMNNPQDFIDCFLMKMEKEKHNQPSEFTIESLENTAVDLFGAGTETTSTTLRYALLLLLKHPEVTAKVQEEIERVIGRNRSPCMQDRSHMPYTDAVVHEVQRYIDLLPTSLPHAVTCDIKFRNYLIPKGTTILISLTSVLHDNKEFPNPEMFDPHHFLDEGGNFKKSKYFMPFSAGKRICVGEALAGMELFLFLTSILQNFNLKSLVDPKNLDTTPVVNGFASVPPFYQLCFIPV
Cytochrome-P450 (CYP) 2D6, sequence (P10635 whole entry): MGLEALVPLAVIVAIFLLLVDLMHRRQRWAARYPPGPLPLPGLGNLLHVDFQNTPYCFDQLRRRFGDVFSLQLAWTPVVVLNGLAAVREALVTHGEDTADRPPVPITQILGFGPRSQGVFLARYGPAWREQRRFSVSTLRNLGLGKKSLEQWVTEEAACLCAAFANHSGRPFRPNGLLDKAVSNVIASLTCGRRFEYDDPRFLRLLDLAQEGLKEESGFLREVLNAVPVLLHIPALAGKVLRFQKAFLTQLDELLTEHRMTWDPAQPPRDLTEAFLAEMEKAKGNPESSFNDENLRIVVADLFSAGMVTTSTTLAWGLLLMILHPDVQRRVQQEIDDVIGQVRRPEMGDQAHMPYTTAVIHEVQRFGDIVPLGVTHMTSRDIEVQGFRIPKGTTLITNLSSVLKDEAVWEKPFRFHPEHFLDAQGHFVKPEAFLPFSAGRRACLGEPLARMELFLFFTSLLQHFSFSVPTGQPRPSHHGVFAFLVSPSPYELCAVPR

`COc1ccc2c(c1)[C@]13CCCC[C@@H]1[C@H](C2)N(C)CC3` [Dexomethorphan]: the negative logarithm of the Kd (pKd) in assay [1] is 1.22; in assay [2] it was 1.55; in assay [3] it was 2.10.
On to `O=C(O)Cc1ccccc1Nc1c(Cl)cccc1Cl` [Diclofenac], for which the pKd is 1.85 in assay [4], 3.17 in assay [1] and 3.14 in assay [3].
For the compound `CC(C)NCC(O)COc1cccc2ccccc12` (stereo not drawn) [Propranolol], the negative logarithm of the Kd (pKd) in assay [4] was 3.06; in assay [2] it was 2.29; in assay [3] it was 2.18.

(Values after patent US8105845B2, “System and method for carrying out multiple binding reactions in an array format” (Bio-Rad Haifa Ltd., priority 2003, dated 2012).)
